Laboratory results published in the NIST ThermoML archive (doi:10.1016/j.jct.2015.07.014).
Values joined by “and” are separate entries in the source; they are usually repeats but may differ in a detail not shown here. Equal values may be shown once. ± gives the expanded uncertainty stated by the source.

Settings: Fluid (supercritical or subcritical phases), Buoyancy - hydrostatic balance with magnetic suspension - one sinker

[Ar] [argon]
Settings | mass density [kg/m3]
298.2 K, 30957 kPa | 499.118 ± 0.25
298.22 K, 26965 kPa | 444.81 ± 0.22
298.22 K, 28963 kPa | 472.591 ± 0.24
298.23 K, 10975 kPa | 185.811 ± 0.11
298.23 K, 12977 kPa | 220.515 ± 0.12
298.23 K, 14975 kPa | 254.862 ± 0.14
298.23 K, 18968 kPa | 321.888 ± 0.17
298.23 K, 20970 kPa | 354.268 ± 0.18
298.23 K, 22969 kPa | 385.599 ± 0.2
298.23 K, 24967 kPa | 415.802 ± 0.21
298.24 K, 16973 kPa | 288.723 ± 0.15
348.19 K, 30960 kPa | 409.077 ± 0.2
348.21 K, 10976 kPa | 153.363 ± 0.077
348.21 K, 19007 kPa | 262.654 ± 0.14
348.21 K, 28963 kPa | 386.293 ± 0.19
348.22 K, 18971 kPa | 262.184 ± 0.14
348.22 K, 28964 kPa | 386.289 ± 0.19
348.23 K, 17005 kPa | 236 ± 0.42
348.24 K, 15014 kPa | 209.051 ± 0.29
348.24 K, 16969 kPa | 235.508 ± 0.42
348.24 K, 26966 kPa | 362.782 ± 1.3
348.24 K, 30961 kPa | 409.019 ± 0.2
348.25 K, 12974 kPa | 181.049 ± 0.34
348.25 K, 32887 kPa | 430.274 ± 0.21
348.26 K, 21009 kPa | 288.719 ± 0.17
348.26 K, 24967 kPa | 338.568 ± 0.87
348.27 K, 14970 kPa | 208.427 ± 0.29
348.27 K, 20969 kPa | 288.199 ± 0.17
348.27 K, 22970 kPa | 313.733 ± 0.19
348.27 K, 26989 kPa | 363.019 ± 1.3
348.28 K, 11019 kPa | 153.917 ± 0.078
348.28 K, 13012 kPa | 181.556 ± 0.34
348.28 K, 25000 kPa | 338.949 ± 0.87
348.29 K, 23010 kPa | 314.199 ± 0.19
397.91 K, 12975 kPa | 155.101 ± 0.085
397.98 K, 14981 kPa | 178.323 ± 0.096
398.1 K, 24969 kPa | 288.472 ± 0.14
398.17 K, 16979 kPa | 201.05 ± 0.11
398.19 K, 30985 kPa | 349.444 ± 0.17
398.2 K, 28999 kPa | 329.764 ± 0.17
398.21 K, 32960 kPa | 368.494 ± 0.18
398.23 K, 26971 kPa | 309.171 ± 0.17
398.23 K, 30962 kPa | 349.179 ± 0.17
398.24 K, 11017 kPa | 132.022 ± 0.076
398.24 K, 19010 kPa | 223.818 ± 0.11
398.25 K, 21010 kPa | 245.897 ± 0.12
398.26 K, 13011 kPa | 155.367 ± 0.085
398.26 K, 23005 kPa | 267.5 ± 0.13
398.28 K, 28964 kPa | 329.33 ± 0.16
398.3 K, 17005 kPa | 201.261 ± 0.11
398.31 K, 15013 kPa | 178.513 ± 0.097
398.35 K, 27004 kPa | 309.394 ± 0.15
398.47 K, 25004 kPa | 288.536 ± 0.14
398.61 K, 18975 kPa | 223.208 ± 0.12
398.87 K, 20975 kPa | 245.092 ± 0.13
398.92 K, 22970 kPa | 266.619 ± 0.14

N#N [nitrogen]
Settings | mass density
298.12 K, 32109 kPa | 311.953 ± 0.15 kg/m3
298.22 K, 30959 kPa | 303.674 ± 0.15 kg/m3
298.23 K, 10976 kPa | 123.118 ± 0.07 kg/m3
298.23 K, 12976 kPa | 144.452 ± 0.079 kg/m3
298.23 K, 16971 kPa | 185.161 ± 0.096 kg/m3
298.23 K, 19010 kPa | 204.785 ± 0.1 kg/m3
298.23 K, 20970 kPa | 222.928 ± 0.11 kg/m3
298.23 K, 22971 kPa | 240.653 ± 0.12 kg/m3
298.23 K, 26968 kPa | 273.675 ± 0.14 kg/m3
298.23 K, 26969 kPa | 273.679 ± 0.14 kg/m3
298.23 K, 28965 kPa | 289.039 ± 0.14 kg/m3
298.23 K, 28966 kPa | 289.035 ± 0.14 kg/m3
298.24 K, 11019 kPa | 123.569 ± 0.07 kg/m3
298.24 K, 13017 kPa | 144.868 ± 0.079 kg/m3
298.24 K, 14976 kPa | 165.17 ± 0.088 kg/m3
298.24 K, 17014 kPa | 185.557 ± 0.096 kg/m3
298.24 K, 18975 kPa | 204.467 ± 0.1 kg/m3
298.24 K, 21004 kPa | 223.219 ± 0.11 kg/m3
298.24 K, 22992 kPa | 240.817 ± 0.12 kg/m3
298.24 K, 24970 kPa | 257.55 ± 0.13 kg/m3
298.24 K, 24971 kPa | 257.546 ± 0.13 kg/m3
298.25 K, 15014 kPa | 165.544 ± 0.088 kg/m3
298.33 K, 30945 kPa | 303.445 ± 0.15 kg/m3
348.21 K, 28966 kPa | 244.176 ± 0.12 kg/m3
348.23 K, 17010 kPa | 154.974 ± 0.11 kg/m3
348.23 K, 32959 kPa | 269.893 ± 0.13 kg/m3
348.24 K, 18974 kPa | 170.907 ± 0.093 kg/m3
348.24 K, 26968 kPa | 230.548 ± 0.12 kg/m3
348.24 K, 28967 kPa | 244.162 ± 0.12 kg/m3
348.25 K, 10981 kPa | 103.086 ± 0.18 kg/m3
348.25 K, 13016 kPa | 121.065 ± 0.07 kg/m3
348.25 K, 22970 kPa | 201.759 ± 0.32 kg/m3
348.25 K, 24970 kPa | 216.421 ± 0.13 kg/m3
348.25 K, 26979 kPa | 230.612 ± 0.12 kg/m3
348.25 K, 30963 kPa | 257.253 ± 0.13 kg/m3 and 257.258 ± 0.13 kg/m3
348.26 K, 15015 kPa | 138.272 ± 0.074 kg/m3
348.26 K, 16972 kPa | 154.648 ± 0.11 kg/m3
348.26 K, 20971 kPa | 186.577 ± 0.31 kg/m3
348.27 K, 11019 kPa | 103.42 ± 0.18 kg/m3
348.27 K, 21013 kPa | 186.886 ± 0.31 kg/m3
348.28 K, 12976 kPa | 120.712 ± 0.069 kg/m3
348.28 K, 14976 kPa | 137.928 ± 0.073 kg/m3
348.28 K, 19011 kPa | 171.174 ± 0.093 kg/m3
348.28 K, 23006 kPa | 202.007 ± 0.32 kg/m3
348.29 K, 25001 kPa | 216.612 ± 0.13 kg/m3
398.17 K, 21012 kPa | 161.802 ± 0.082 kg/m3
398.19 K, 23005 kPa | 175.071 ± 0.088 kg/m3
398.21 K, 27000 kPa | 200.503 ± 0.1 kg/m3
398.22 K, 19011 kPa | 148.062 ± 0.076 kg/m3
398.22 K, 28993 kPa | 212.616 ± 0.1 kg/m3
398.22 K, 32961 kPa | 235.672 ± 0.12 kg/m3
398.23 K, 25002 kPa | 187.957 ± 0.094 kg/m3
398.24 K, 20972 kPa | 161.499 ± 0.082 kg/m3
398.24 K, 26967 kPa | 200.287 ± 0.1 kg/m3
398.24 K, 28966 kPa | 212.445 ± 0.1 kg/m3
398.25 K, 12976 kPa | 104.354 ± 0.057 kg/m3
398.25 K, 22969 kPa | 174.806 ± 0.088 kg/m3
398.26 K, 24969 kPa | 187.737 ± 0.094 kg/m3
398.26 K, 30962 kPa | 224.219 ± 0.11 kg/m3
398.27 K, 30977 kPa | 224.298 ± 0.11 kg/m3
398.28 K, 14977 kPa | 119.222 ± 0.065 kg/m3
398.28 K, 18975 kPa | 147.786 ± 0.076 kg/m3
398.29 K, 16973 kPa | 133.67 ± 0.07 kg/m3
398.3 K, 13014 kPa | 104.623 ± 0.057 kg/m3
398.32 K, 11005 kPa | 89.328 ± 0.051 kg/m3
398.36 K, 17012 kPa | 133.928 ± 0.07 kg/m3
398.39 K, 15006 kPa | 119.391 ± 0.065 kg/m3
